The source of these data is patent US6387885B1, “3′,3′-N-bis-desmethyl-3′-N-cycloalkyl erythromycin derivatives as LHRH antagonists” (Abbott Laboratories, priority 1998, dated 2002).

The target of series [1] is T1, LHRH rat pituitary receptor (Rattus norvegicus, UniProt P30969).
T1 construct: from tissue; host or cells: rat pituitary
T1 sequence (P30969 1-327): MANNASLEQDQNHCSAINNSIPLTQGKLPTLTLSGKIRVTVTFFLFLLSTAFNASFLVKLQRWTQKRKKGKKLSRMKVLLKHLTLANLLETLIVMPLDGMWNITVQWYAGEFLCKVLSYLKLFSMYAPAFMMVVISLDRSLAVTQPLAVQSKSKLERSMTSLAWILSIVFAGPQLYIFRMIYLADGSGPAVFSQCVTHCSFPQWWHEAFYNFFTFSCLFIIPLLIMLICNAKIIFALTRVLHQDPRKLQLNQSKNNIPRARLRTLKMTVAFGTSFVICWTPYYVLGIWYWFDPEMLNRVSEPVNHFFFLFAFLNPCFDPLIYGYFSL
The series can be described thus: LHRH rat pituitary receptor binding (in vitro). Conditions: method of Haviv et al. J. Med. Chem. 32: 2340-2344 (1989), read-out: pKI (receptor binding affinity; negative logarithm of the equilibrium dissociation constant) (converted). As to the method:
Representative compounds of the present invention were evaluated in in vitro tests for LHRH rat pituitary receptor binding (pKI). The tests employed the methods detailed in F. Haviv, et al. J. Med. Chem., 32: 2340-2344 (1989). The receptor binding affinity (pKI) is the negative logarithms of the equilibrium dissociation constants.

Molecules are shown by their SMILES.

For the molecule `CCC1CCC(CC)N1[C@H]1C[C@@H](C)O[C@@H](O[C@@H]2[C@@H](C)[C@H](O[C@H]3C[C@@](C)(OC)[C@@H](O)[C@H](C)O3)[C@@H](C)C(=O)O[C@H](CC)[C@@]3(C)OC(=O)N(CCc4ccc(Cl)c(Cl)c4)[C@@H]3[C@@H](C)C(=O)[C@H](C)C[C@@]2(C)OC)[C@@H]1O` (stereo partly drawn) [Example 9, 3′-Desamino-3′-N-(2,5-diethylpyrrolidinyl)-11-deoxy-11-[carboxy-(3,4-dichlorophenethylamino)]-6-O-methyl-erythromycin A 11,12-(cyclic carbamate)], in series [1], the Ki was 1.74 nM.
As to `CCC1CCC(CC)N1[C@H]1C[C@@H](C)O[C@@H](O[C@@H]2[C@@H](C)[C@H](O[C@H]3C[C@@](C)(OC)[C@@H](O)[C@H](C)O3)[C@@H](C)C(=O)O[C@H](CC)[C@@]3(C)OC(=O)N(CCc4ccc(F)c(Cl)c4)[C@@H]3[C@@H](C)C(=O)[C@H](C)C[C@@]2(C)OC)[C@@H]1O` (mixture of isomers) [Example 10, 3′-Desamino-3′-N-(2,5-diethylpyrrolidinyl)-11-deoxy-11-[carboxy-(3-chloro-4-fluorophenethylamino)]-6-O-methyl-erythromycin A 11,12-(cyclic carbamate)], the Ki in series [1] was 0.676 nM.
`CC[C@H]1OC(=O)[C@H](C)[C@@H](O[C@H]2C[C@@](C)(OC)[C@@H](O)[C@H](C)O2)[C@H](C)[C@@H](O[C@@H]2O[C@H](C)C[C@H](N3C(C)CCCC3C)[C@H]2O)[C@](C)(OC)C[C@@H](C)C(=O)[C@H](C)[C@H]2N(CCc3ccc(Cl)c(Cl)c3)C(=O)O[C@]12C` (single isomer, unassigned) [Example 7, 3′-Desamino-3′-N-(2,6-dimethylpiperidinyl)-11-deoxy-11-[carboxy-(3,4-dichlorophenethylamino)]-6-O-methyl-erythromycin A 11,12-(cyclic carbamate)]: the Ki in series [1] was 2.57 nM.
On to `CC[C@H]1OC(=O)[C@H](C)[C@@H](O[C@H]2C[C@@](C)(OC)[C@@H](O)[C@H](C)O2)[C@H](C)[C@@H](O[C@@H]2O[C@H](C)C[C@H](N3C(C)CCC3C)[C@H]2O)[C@](C)(OC)C[C@@H](C)C(=O)[C@H](C)[C@H]2N(CCc3ccc(F)c(Cl)c3)C(=O)O[C@]12C` (single isomer, unassigned) [Example 6, 3′-Desamino-3′-N-(2,5-dimethylpyrrolidinyl)-11-deoxy-11-[carboxy-(3-chloro-4-fluorophenethylamino)]-6-O-methyl-erythromycin A 11,12-(cyclic carbamate)], for which the melting point (usually the temperature, or range, at which the solid turns liquid) lay in the range of 276 to 278 °C. Besides, the Ki in series [1] was 0.759 nM.
As for `CC[C@H]1OC(=O)[C@H](C)[C@@H](O[C@H]2C[C@@](C)(OC)[C@@H](O)[C@H](C)O2)[C@H](C)[C@@H](O[C@@H]2O[C@H](C)C[C@H](N3CCCC3)[C@H]2O)[C@](C)(OC)C[C@@H](C)C(=O)[C@H](C)[C@H]2N(CCc3ccc(Cl)c(Cl)c3)C(=O)O[C@]12C` [Example 1, 3′-Desamino-(3′S)-N-pyrrolidinyl-11-deoxy-11-[carboxy-(3,4-dichlorophenethylamino)]-6-O-methyl-erythromycin A 11,12-(cyclic carbamate)], the Ki in series [1] is 1.82 nM.
`CC[C@H]1OC(=O)[C@H](C)[C@@H](O[C@H]2C[C@@](C)(OC)[C@@H](O)[C@H](C)O2)[C@H](C)[C@@H](O[C@@H]2O[C@H](C)C[C@H](N3CCCCC3)[C@H]2O)[C@](C)(OC)C[C@@H](C)C(=O)[C@H](C)[C@H]2N(CCc3ccc(F)c(Cl)c3)C(=O)O[C@]12C` [Example 4, 3′-Desamino-3′-N-piperidinyl-11-deoxy-11-[carboxy-(3-chloro-4-fluorophenethylamino)]-6-O-methyl-erythromycin A 11,12-(cyclic carbamate)]: in series [1], the Ki is 5.62 nM.
For the molecule `CC[C@H]1OC(=O)[C@H](C)[C@@H](O[C@H]2C[C@@](C)(OC)[C@@H](O)[C@H](C)O2)[C@H](C)[C@@H](O[C@@H]2O[C@H](C)C[C@H](N3C(C)CCC3C)[C@H]2O)[C@](C)(OC)C[C@@H](C)C(=O)[C@H](C)[C@H]2N(CCc3ccc(Cl)c(Cl)c3)C(=O)O[C@]12C` (single isomer, unassigned) [Example 5, 3′-Desamino-3′S-N-(2,5-dimethylpyrrolidinyl)-11-deoxy-11-[carboxy-(3,4-dichlorophenethylamino)]-6-O-methyl-erythromycin A 11,12-(cyclic carbamate)], the melting point was in the range of 258 to 260 °C. In series [1], the Ki was 1.23 nM.
Regarding `CC[C@H]1OC(=O)[C@H](C)[C@@H](O[C@H]2C[C@@](C)(OC)[C@@H](O)[C@H](C)O2)[C@H](C)[C@@H](O[C@@H]2O[C@H](C)C[C@H](N3C(C4CC4)CCCC3C3CC3)[C@H]2O)[C@](C)(OC)C[C@@H](C)C(=O)[C@H](C)[C@H]2N(CCc3ccc(F)c(Cl)c3)C(=O)O[C@]12C` (stereo partly drawn) [Example 11, 3′-Desamino-3′-N-(2,6-biscyclopropylpiperidinyl)-11-deoxy-11-[carboxy-(3-chloro-4-fluorophenethylamino)]-6-O-methyl-erythromycin A 11,12-(cyclic carbamate)], the Ki in series [1] was 1.17 nM.
The same measure, in the same setting: the figure for `CC[C@H]1OC(=O)[C@H](C)[C@@H](O[C@H]2C[C@@](C)(OC)[C@@H](O)[C@H](C)O2)[C@H](C)[C@@H](O[C@@H]2O[C@H](C)C[C@H](N3C(C)CCCC3C)[C@H]2O)[C@](C)(OC)C[C@@H](C)C(=O)[C@H](C)[C@H]2N(CCc3ccc(F)c(Cl)c3)C(=O)O[C@]12C` (single isomer, unassigned) [Example 8, 3′-Desamino-3′-N-(2,6-dimethylpiperidinyl)-11-deoxy-11-[carboxy-(3-chloro-4-fluorophenethylamino)]-6-O-methyl-erythromycin A 11,12-(cyclic carbamate)] is 2.45 nM.
Take `CC[C@H]1OC(=O)[C@H](C)[C@@H](O[C@H]2C[C@@](C)(OC)[C@@H](O)[C@H](C)O2)[C@H](C)[C@@H](O[C@@H]2O[C@H](C)C[C@H](N3CCCCC3)[C@H]2O)[C@](C)(OC)C[C@@H](C)C(=O)[C@H](C)[C@H]2N(CCc3ccc(Cl)c(Cl)c3)C(=O)O[C@]12C` [Example 3, 3′-Desamino-3′-N-piperidinyl-11-deoxy-11-[carboxy-(3,4-dichlorophenethylamino)]-6-O-methyl-erythromycin A 11,12-(cyclic carbamate)]: the Ki in series [1] was 3.55 nM.
